Reference: patent US7803930B2, “Antisense modulation of apolipoprotein B-expression” (Isis Pharmaceuticals, Inc., priority 2002, dated 2010)
In the oligonucleotide strings, read from the 5' end, every base follows the letter of its sugar. An asterisk marks phosphorothioate; unmarked linkages are phosphodiester. Other units and linkages are bracketed, terminal groups are in braces. A string of capitals states the bases alone. e = 2'-O-(2-methoxyethyl) (MOE); [5mC] = 5-methylcytosine; d = 2'-deoxy (DNA)

system: human apolipoprotein B mRNA; assay: Inhibition of human apolipoprotein B mRNA levels in HepG2 cells, quantitative real-time PCR; type: cell-based; settings: HepG2 cells treated with 150 nM of compound; averages from two experiments; quantitative real-time PCR
Protocol: The human hepatoblastoma cell line HepG2 was obtained from the American Type Culture Collection (Manassas, Va.). HepG2 cells were routinely cultured in Eagle's MEM supplemented with 10% fetal calf serum, non-essential amino acids, and 1 mM sodium pyruvate (Gibco/Life Technologies, Gaithersburg, Md.). Cells were routinely passaged by trypsinization and dilution when they reached 90% confluence. Cells were seeded into 96-well plates (Falcon-Primaria #3872) at a density of 7000 cells/well for use in RT-PCR analysis.
When cells reached 80% confluency, they were treated with oligonucleotide. For cells grown in 96-well plates, wells were washed once with 200 μL OPTI-MEM™-1 reduced-serum medium (Gibco BRL) and then treated with 130 μL of OPTI-MEM™-1 containing 3.75 μg/mL LIPOFECTIN™ (Gibco BRL) and the desired concentration of oligonucleotide. After 4-7 hours of treatment, the medium was replaced with fresh medium. Cells were harvested 16-24 hours after oligonucleotide treatment.
Quantitation of apolipoprotein B mRNA levels was determined by real-time quantitative PCR using the ABI PRISM™ 7700 Sequence Detection System (PE-Applied Biosystems, Foster City, Calif.) according to manufacturer's instructions. This is a closed-tube, non-gel-based, fluorescence detection system which allows high-throughput quantitation of polymerase chain reaction (PCR) products in real-time. As opposed to standard PCR, in which amplification products are quantitated after the PCR is completed, products in real-time quantitative PCR are quantitated as they accumulate. This is accomplished by including in the PCR reaction an oligonucleotide probe that anneals specifically between the forward and reverse PCR primers, and contains two fluorescent dyes. A reporter dye (e.g., JOE, FAM, or VIC, obtained from either Operon Technologies Inc., Alameda, Calif. or PE-Applied Biosystems, Foster City, Calif.) is attached to the 5′ end of the probe and a quencher dye (e.g., TAMRA, obtained from either Operon Technologies Inc., Alameda, Calif. or PE-Applied Biosystems, Foster City, Calif.) is attached to the 3′ end of the probe. When the probe and dyes are intact, reporter dye emission is quenched by the proximity of the 3′ quencher dye. During amplification, annealing of the probe to the target sequence creates a substrate that can be cleaved by the 5′-exonuclease activity of Taq polymerase. […] With each cycle, additional reporter dye molecules are cleaved from their respective probes, and the fluorescence intensity is monitored at regular intervals by laser optics built into the ABI PRISM™ 7700 Sequence Detection System. In each assay, a series of parallel reactions containing serial dilutions of mRNA from untreated control samples generates a standard curve that is used to quantitate the percent inhibition after antisense oligonucleotide treatment of test samples.
PCR reagents were obtained from PE-Applied Biosystems, Foster City, Calif. RT-PCR reactions were carried out by adding 25 μL PCR cocktail (1× TAQMAN™ buffer A, 5.5 mM MgCl2, 300 μM each of DATP, dCTP and dGTP, 600 μM of dUTP, 100 nM each of forward primer, reverse primer, and probe, 20 Units RNAse inhibitor, 1.25 Units AMPLITAQ GOLD™, and 12.5 Units MuLV reverse transcriptase) to 96 well plates containing 25 μL total RNA solution. The RT reaction was carried out by incubation for 30 minutes at 48° C. Following a 10 minute incubation at 95° C. to activate the AMPLITAQ GOLD™, 40 cycles of a two-step PCR protocol were carried out: 95° C. for 15 seconds (denaturation) followed by 60° C. for 1.5 minutes (annealing/extension).
Gene target quantities obtained by real time RT-PCR are normalized using either the expression level of GAPDH, a gene whose expression is constant, or by quantifying total RNA using RiboGreen™ (Molecular Probes, Inc. Eugene, Oreg.). GAPDH expression is quantified by real time RT-PCR, by being run simultaneously with the target, multiplexing, or separately. […]

Substance	% INHIB (inhibition of human apolipoprotein B mRNA levels)
271021 (antisense eG*eA*eG*eT*e[5mC]*dT*d[5mC]*dT*dG*dA*dG*dT*d[5mC]*dA*d[5mC]*e[5mC]*eT*e[5mC]*eA*e[5mC]) [compound 271021]	38%
271022 (antisense eG*eA*eT*eA*eG*dA*dA*dT*dA*dT*dT*dG*d[5mC]*dT*d[5mC]*eT*eG*e[5mC]*eA*eA) [compound 271022]	100%
271023 (antisense e[5mC]*e[5mC]*e[5mC]*eT*eT*dG*d[5mC]*dT*d[5mC]*dT*dA*d[5mC]*d[5mC]*dA*dA*eT*eG*e[5mC]*eT*eT) [compound 271023]	44%
271025 (eT*e[5mC]*e[5mC]*eA*eT*dT*d[5mC]*d[5mC]*d[5mC]*dT*dA*dT*dG*dT*d[5mC]*eA*eG*e[5mC]*eA*eT; antisense) [compound 271025]	16%
271026 (eG*eA*e[5mC]*eT*e[5mC]*d[5mC]*dT*dT*d[5mC]*dA*dG*dA*dG*d[5mC]*d[5mC]*eA*eG*e[5mC]*eG*eG; antisense) [compound 271026]	39%
271027 (e[5mC]*e[5mC]*e[5mC]*eA*eT*dG*d[5mC]*dT*d[5mC]*d[5mC]*dG*dT*dT*d[5mC]*dT*e[5mC]*eA*eG*eG*eT; antisense) [compound 271027]	26%
271028 (e[5mC]*eG*e[5mC]*eA*eG*dG*dT*d[5mC]*dA*dG*d[5mC]*d[5mC]*dT*dG*dA*e[5mC]*eT*eA*eG*eA; antisense) [compound 271028]	98%
271030 (e[5mC]*eA*eG*eT*eT*dA*dG*dA*dA*d[5mC]*dA*d[5mC]*dT*dG*dT*eG*eG*e[5mC]*e[5mC]*e[5mC]; antisense) [compound 271030]	52%
271031 (e[5mC]*eA*eG*eT*eG*dT*dG*dA*dT*dG*dA*d[5mC]*dA*d[5mC]*dT*eT*eG*eA*eT*eT; antisense) [compound 271031]	49%
271032 (e[5mC]*eT*eG*eT*eG*dG*d[5mC]*dT*dA*dA*d[5mC]*dT*dT*d[5mC]*dA*eA*eT*e[5mC]*e[5mC]*e[5mC]; antisense) [compound 271032]	22%
271033 (e[5mC]*eA*eG*eT*eA*d[5mC]*dT*dG*dT*dT*dA*dT*dG*dA*d[5mC]*eT*eA*e[5mC]*e[5mC]*e[5mC]; antisense) [compound 271033]	34%
271034 (e[5mC]*eA*e[5mC]*eT*eG*dA*dA*dG*dA*d[5mC]*d[5mC]*dG*dT*dG*dT*eG*e[5mC]*eT*e[5mC]*eT; antisense) [compound 271034]	35%
271035 (eT*e[5mC]*eG*eT*eA*d[5mC]*dT*dG*dT*dG*d[5mC]*dT*d[5mC]*d[5mC]*d[5mC]*eA*eG*eA*eG*eG; antisense) [compound 271035]	23%
271036 (eA*eA*eG*eA*eG*dG*d[5mC]*d[5mC]*d[5mC]*dT*d[5mC]*dT*dA*dG*d[5mC]*eT*eG*eT*eA*eA; antisense) [compound 271036]	95%
271037 (eA*eA*eG*eA*e[5mC]*d[5mC]*d[5mC]*dA*dG*dA*dA*dT*dG*dA*dA*eT*e[5mC]*e[5mC]*eG*eG; antisense) [compound 271037]	23%
271038 (eG*eT*e[5mC]*eT*eA*d[5mC]*d[5mC]*dT*d[5mC]*dA*dA*dA*dG*d[5mC]*dG*eT*eG*e[5mC]*eA*eG; antisense) [compound 271038]	29%
271039 (eT*eA*eG*eA*eG*dG*d[5mC]*dT*dA*dA*d[5mC]*dG*dT*dA*d[5mC]*e[5mC]*eA*eT*e[5mC]*eT; antisense) [compound 271039]	4%
271041 (e[5mC]*e[5mC]*eA*eT*eA*dT*d[5mC]*d[5mC]*dA*dT*dG*d[5mC]*d[5mC]*d[5mC]*dA*e[5mC]*eG*eG*eT*eG; antisense) [compound 271041]	37%
271042 (eA*eG*eT*eT*eT*d[5mC]*d[5mC]*dT*d[5mC]*dA*dT*d[5mC]*dA*dG*dA*eT*eT*e[5mC]*e[5mC]*e[5mC]; antisense) [compound 271042]	57%
271043 (e[5mC]*e[5mC]*e[5mC]*eA*eG*dT*dG*dG*dT*dA*d[5mC]*dT*dT*dG*dT*eT*eG*eA*e[5mC]*eA; antisense) [compound 271043]	68%
271044 (e[5mC]*e[5mC]*e[5mC]*eA*eG*dT*dG*dG*dT*dG*d[5mC]*d[5mC]*dA*d[5mC]*dT*eG*eG*e[5mC]*eT*eG; antisense) [compound 271044]	22%
271045 (eG*eT*e[5mC]*eA*eA*d[5mC]*dA*dG*dT*dT*d[5mC]*d[5mC]*dT*dG*dG*eT*eA*e[5mC]*eA*eG; antisense) [compound 271045]	19%
271046 (e[5mC]*e[5mC]*e[5mC]*eT*eA*dG*dT*dG*dT*dA*dT*dA*dT*d[5mC]*d[5mC]*e[5mC]*eA*eG*eG*eT; antisense) [compound 271046]	61%
271048 (e[5mC]*eT*eG*eA*eA*dG*dA*dT*dT*dA*d[5mC]*dG*dT*dA*dG*e[5mC]*eA*e[5mC]*e[5mC]*eT; antisense) [compound 271048]	7%
271049 (eG*eT*e[5mC]*e[5mC]*eA*dG*d[5mC]*d[5mC]*dA*dA*d[5mC]*dT*dA*dT*dA*e[5mC]*eT*eT*eG*eG; antisense) [compound 271049]	54%
271050 (e[5mC]*e[5mC]*eT*eG*eG*dA*dG*d[5mC]*dA*dA*dG*d[5mC]*dT*dT*d[5mC]*eA*eT*eG*eT*eA; antisense) [compound 271050]	42%
281586 (eT*eG*eG*eA*e[5mC]*dA*dG*dA*d[5mC]*d[5mC]*dA*dG*dG*d[5mC]*dT*eG*eA*e[5mC]*eA*eT; antisense) [compound 281586]	80%
281587 (eA*eT*eG*eT*eG*dT*dA*d[5mC]*dT*dT*d[5mC]*d[5mC]*dG*dG*dA*eG*eG*eT*eG*e[5mC]; antisense) [compound 281587]	77%
281588 (eT*e[5mC]*eT*eT*e[5mC]*dA*dG*dG*dA*dT*dG*dA*dA*dG*d[5mC]*eT*eG*e[5mC]*eA*eG; antisense) [compound 281588]	80%

same assay, conditions: Table 12; HepG2 cells, 150 nM; averages from two experiments

Substance	% INHIB
271024 (eG*e[5mC]*eT*e[5mC]*eA*d[5mC]*dT*dG*dT*dT*d[5mC]*dA*dG*d[5mC]*dA*eT*e[5mC]*eT*eG*eG; antisense) [compound 271024]	27%
271040 (eG*eT*e[5mC]*e[5mC]*eT*dT*d[5mC]*dA*dT*dA*dT*dT*dT*dG*d[5mC]*e[5mC]*eA*eT*e[5mC]*eT; antisense) [compound 271040]	0%
271047 (e[5mC]*e[5mC]*eT*e[5mC]*e[5mC]*d[5mC]*dT*d[5mC]*dA*dT*dG*dA*dA*d[5mC]*dA*eT*eA*eG*eT*eG; antisense) [compound 271047]	32%
